Assay results reported in patent US20020137655A1, “Use of haloperoxidase, peroxide and carboxylic acid” (Novozymes A/S, priority 2000, published 2002).

Test system: Escherichia coli (DSM 1576)
Assay: Antibacterial activity of haloperoxidase, hydrogen peroxide and a buffer compound against Escherichia coli cells (conductance measurement, Malthus)
Type: cell-based
Details: for Log CFU/ml (reduction in number of living bacterial cells): buffer 50 mM, 40° C., 20 minutes, approx. 10^6 CFU/ml; for bactericidal activity: carboxylic acid as buffer with haloperoxidase and hydrogen peroxide (Table 1), log CFU/ml reduction of more than 6 units corresponds to 100%
Protocol: Antimicrobial activity may be measured in terms of the number of log reductions. The term “log reduction” is defined as a logarithmic reduction of the number of living cells, e.g. 1 log reduction corresponds to a reduction in living cell number of Escherichia coli DSM1576 or Enterococcus faecalis DSM2570 from Y×10^X CFU/M (CFU: […] The number of living bacteria are to be determined as the number of E. coli or E. faecalis, respectively, which can grow on Tryptone Soya Agar plates at 30° C. The antibacterial activity of a system composed of a haloperoxidase and hydrogen peroxide were tested in a variety of buffers (including both carboxylic acids and other buffer compounds) and pH against Escherichia coli (DSM 1576). The E. coli cells were grown in Brain Heart Infusion broth (BHI) until stationary growth phase (30° C., 20 hours). […] Subsequently the solution was incubated in a 96-well MicroWell plate (Nunc A/S, Denmark) at 40° C. in 20 minutes. […] The detection times measured by the Malthus instrument were converted to CFU/ml by a calibration curve.

[1] = pH 6, rCvP 0.5 mg/L, H2O2 0.5 mM
[2] = pH 5, rCvP 0.5 mg/L, H2O2 0.5 mM
[3] = pH 7, rCvP 0.1 mg/L, H2O2 0.25 mM

| Molecule | Log CFU/ml (reduction in number of living bacterial cells) [1] | Log CFU/ml (reduction in number of living bacterial cells) [2] | bactericidal activity | Log CFU/ml (reduction in number of living bacterial cells) [3] | Log CFU/ml (reduction in number of living bacterial cells) (pH 8, rCvP 1 mg/L, H2O2 1 mM) |
| --- | --- | --- | --- | --- | --- |
| O=S(=O)(O)CCN1CCOCC1 [2-(N-morpholino) ethanesulfonic acid] | 0.6 Log CFU/ml |  |  |  |  |
| CC(=O)O [Acetic acid] |  | 6.0 Log CFU/ml | 100% |  |  |
| O=C(O)CC(O)(CC(=O)O)C(=O)O [Citric acid] |  | 6.4 Log CFU/ml | 100% |  |  |
| CC(C)(CC(=O)O)CC(=O)O [Dimethylglutaric acid (DMG), Dimethylglutaric acid] | 6.7 Log CFU/ml |  | 100% | 7.3 Log CFU/ml |  |
| O=S(=O)(O)CCN1CCN(CCO)CC1 [HEPES] |  |  |  | 0.7 Log CFU/ml | 0.6 Log CFU/ml |
| O=P([O-])(O)O.[K+] [KH2PO4] |  |  |  | 0.3 Log CFU/ml | 0.4 Log CFU/ml |
| Tris(hydroxymethyl)amino-methane [Tris(hydroxymethyl)amino-methane (TRIS)] |  |  |  | 0.3 Log CFU/ml | 0.5 Log CFU/ml |
